# Test results: patent publication US20250304643A1, “PEPTIDE DUAL AGONISTS OF GIPR AND GLP2R” (BAINAN BIOTECH APS, priority 2021, published 2025)
# Where two headings read alike, the source gives them in different places.
# Tests used:
# Assay type in all cases: cell-based
# [1] = target: T1, human GLP-2R (Homo sapiens, UniProt O95838); experiment: HitHunter cAMP assay in transiently transfected COS-7 cells, human GLP-2R;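 further: cells kept 30 min at 37 °C in buffer with 1 mM IBMX, then given ligand for another 30 min at 37 °C before cAMP readout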
# T1 construct: host or cells: COS-7
# T1 sequence (O95838 1-553): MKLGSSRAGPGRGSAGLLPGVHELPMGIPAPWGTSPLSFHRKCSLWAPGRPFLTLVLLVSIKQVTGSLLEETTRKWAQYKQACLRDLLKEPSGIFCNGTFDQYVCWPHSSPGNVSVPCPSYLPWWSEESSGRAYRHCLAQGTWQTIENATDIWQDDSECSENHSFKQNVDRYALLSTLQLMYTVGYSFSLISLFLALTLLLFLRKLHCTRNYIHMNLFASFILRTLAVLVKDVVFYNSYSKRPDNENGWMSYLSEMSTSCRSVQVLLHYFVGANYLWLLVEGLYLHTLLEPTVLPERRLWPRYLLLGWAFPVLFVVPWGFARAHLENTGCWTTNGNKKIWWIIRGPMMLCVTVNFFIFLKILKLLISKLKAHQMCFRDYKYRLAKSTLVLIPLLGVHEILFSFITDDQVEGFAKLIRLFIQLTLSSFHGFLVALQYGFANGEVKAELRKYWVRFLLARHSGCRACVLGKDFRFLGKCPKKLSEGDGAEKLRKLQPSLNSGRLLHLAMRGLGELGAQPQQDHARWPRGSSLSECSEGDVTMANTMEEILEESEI
# Description: COS-7 cells were cultured at 10% CO2 and 37° C. in Dulbecco's Modified Eagle Medium (DMEM) 1885 supplemented with 10% fetal bovine serum (FBS), 2 mM glutamine, 180 units/ml penicillin, and 45 g/ml streptomycin.
# The next day the assay was initiated by washing with HEPES buffered saline (HBS) and followed by an incubation step with assay buffer (HBS added 1 mM isobutyl-1-methylxanthine (IBMX)) for 30 min at 37° C. The ligands were then added and incubated for an additional 30 min at 37° C. After ligand incubation, the HitHunter® CAMP assay (Eurofins DiscoverX, Fremont, 150 USA) was carried out according to the manufacturer's instructions. Luminescence was measured by PerkinElmer™ EnVision 2014 Multilabel Reader (PerkinElmer, Waltham, MA). The potencies (EC50 values) were determined by nonlinear regression using GraphPad Prism 9 (San Diego, California, USA). Sigmoid curves were fitted logistically. The efficacies (Emax values) were determined by normalization to the highest concentration applied of the endogenous ligand for each receptor.
# [2] = target: T2, human GLP-1R (Homo sapiens, UniProt P43220); experiment: HitHunter cAMP assay in transiently transfected COS-7 cells, human GLP-1R; conditions: for activation of hGLP-1R: fatty acid at C-terminal residue or position 16
# T2 construct: host or cells: COS-7
# Description: The next day the assay was initiated by washing with HEPES buffered saline (HBS) and followed by an incubation step with assay buffer (HBS added 1 mM isobutyl-1-methylxanthine (IBMX)) for 30 min at 37° C. The ligands were then added and incubated for an additional 30 min at 37° C. After ligand incubation, the HitHunter® CAMP assay (Eurofins DiscoverX, Fremont, […] USA) was carried out according to the manufacturer's instructions. Luminescence was measured by PerkinElmer™ EnVision 2014 Multilabel Reader (PerkinElmer, Waltham, MA). The potencies (EC50 values) were determined by nonlinear regression using GraphPad Prism 9 (San Diego, California, USA). Sigmoid curves were fitted logistically. The efficacies (Emax values) were determined by normalization to the highest concentration applied of the endogenous ligand for each receptor.
# [3] = target: T3, human GIPR (Homo sapiens, UniProt P48546); parameters: host or cells: COS-7
# T3 sequence (P48546 22-466): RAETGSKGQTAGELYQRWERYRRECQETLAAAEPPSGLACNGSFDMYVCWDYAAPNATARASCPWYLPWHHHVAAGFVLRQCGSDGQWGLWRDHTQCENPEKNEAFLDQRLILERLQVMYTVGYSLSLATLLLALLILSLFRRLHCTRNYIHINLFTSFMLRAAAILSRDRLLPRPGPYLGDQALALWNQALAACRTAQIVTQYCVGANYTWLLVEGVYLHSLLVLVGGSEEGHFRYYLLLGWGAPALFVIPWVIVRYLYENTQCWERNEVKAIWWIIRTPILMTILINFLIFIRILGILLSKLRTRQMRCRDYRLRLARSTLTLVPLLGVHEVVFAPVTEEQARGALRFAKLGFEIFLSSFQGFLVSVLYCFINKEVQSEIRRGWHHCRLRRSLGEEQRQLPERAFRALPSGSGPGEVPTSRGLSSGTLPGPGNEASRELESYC
# [4] = Emax normalized to highest concentration of endogenous ligand, Table 2
# [5] = Emax normalized to highest concentration of endogenous ligand, Table 3
# [6] = comparative peptides, Emax normalized to endogenous ligand, Table B
# [7] = comparative peptides, Emax normalized to endogenous ligand, Table C
# [8] = comparative peptides, Emax normalized to endogenous ligand, Table 4A
# T2 sequence (P43220 24-463): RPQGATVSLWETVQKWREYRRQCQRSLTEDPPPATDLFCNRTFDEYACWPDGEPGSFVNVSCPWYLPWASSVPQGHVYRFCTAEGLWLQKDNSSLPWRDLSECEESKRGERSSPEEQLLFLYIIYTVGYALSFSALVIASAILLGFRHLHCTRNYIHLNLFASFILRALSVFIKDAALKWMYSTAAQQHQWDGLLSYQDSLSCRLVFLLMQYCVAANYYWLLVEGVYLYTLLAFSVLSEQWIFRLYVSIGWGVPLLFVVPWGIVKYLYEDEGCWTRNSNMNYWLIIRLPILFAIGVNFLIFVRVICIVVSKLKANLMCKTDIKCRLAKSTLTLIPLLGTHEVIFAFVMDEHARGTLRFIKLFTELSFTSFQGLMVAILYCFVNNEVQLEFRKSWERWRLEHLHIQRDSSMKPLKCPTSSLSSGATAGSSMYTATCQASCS
Substance,"Efficacy GLP-2R [1, 4]","Efficacy GLP-1R [2, 5]","Efficacy GIPR [3, 4]",further results
(C10-diacid)H-Aib-DGTFISDYST-Aib-LDNLAARDFINWLIQTKITK-OH [Compound no. 18],90,10,77,–
(C16)H-Aib-DGTFISDYST-Aib-LDNLAARDFINWLIQTKITK-OH [Compound no. 5],109,6,111,–
(C16)H-Aib-DGTFISDYSTILD-Aib-LAARDFINWLIQTKITK-OH [Compound no. 6],91,34,108,–
(C16)H-Aib-DGTFISDYSTILDNLAARDFIEWLIQTKIT-OH [Compound no. 8],106,19,108,–
(C16)H-Aib-DGTFISDYSTILDNLAARDFIEWLIQTKITK-OH [Compound no. 7],101,13,114,–
(C16)HADGTFISDYSTILDAibLAARDFINWLIQTKITKNDWKHNITQ [Compound no. 16],64,2,99,–
(C16)HADGTFISDYSTILDELAARDFINWLIQTKITKNDWKHNITQ [Compound no. 48],69,–,112,–
(C16)HADGTFISDYSTILDNLAAKDFINWLIQTKITK [Compound no. 45],59,–,91,–
(C16)HADGTFISDYSTILDNLAARDFIEWLIQTKITKNDWKHNITQ [Compound no. 50],70,–,101,–
(C16)HADGTFISDYSTILDNLAARDFINWLIATKITKNDWKHNITQ [Compound no. 52],68,–,–,–
(C16)HADGTFISDYSTILDNLAARDFINWLIETKITKNDWKHNITQ [Compound no. 51],66,–,104,–
(C16)HADGTFISDYSTILDNLAARDFINWLIQTKIT [Compound no. 2],59,–,80,–
(C16)HADGTFISDYSTILDNLAARDFINWLIQTKITKAEWKHAITQ [Compound no. 49],92,–,105,–
(C16)HADGTFISDYSTILDNLAARDFINWLLAQKITK [Compound no. 46],82,–,98,–
(C16)HADGTFISDYSTILELLAARDFINWLIQTKITKNDWKHNITQ [Compound no. 15],70,0,106,–
(C16-diacid)H-Aib-DGTFISDYST-Aib-LDALAARDFIEWLIQTKITK-OH [Compound no. 20],88,–,93,–
(C16-diacid)H-Aib-DGTFISDYST-Aib-LDKLAARDFIEWLIQTKITK-OH [Compound no. 22],95,–,91,–
(C16-diacid)H-Aib-DGTFISDYST-Aib-LDKLAARDFINWLIETKITK-OH [Compound no. 23],86,–,107,–
(C16-diacid)H-Aib-DGTFISDYST-Aib-LDNLAAKDFINWLIQTKITKNDWKHNITQ-OH [Compound no. 42],93,–,–,–
(C16-diacid)H-Aib-DGTFISDYST-Aib-LDNLAARDFINWLIQTKITK-OH [Compound no. 17],90,5,98,–
(C16-diacid)H-Aib-DGTFISDYST-Aib-LDNLAARDFINWLIQTKITKNDWKHNITQ-OH [Compound no. 40],96,–,94,–

Substance,"Efficacy GLP-2R [1, 4]","Efficacy GLP-1R [2, 5]","Efficacy GIPR [3, 4]",further results
(C16-diacid)H-Aib-EGTFISDYST-Aib-LDALAARDFINWLIQTKITKNDWKHNITQ-OH [Compound no. 41],74,14,91,–
(C16-diacid)H-Aib-EGTFISDYST-Aib-LDKLAARDFINWLIQTKITK-OH [Compound no. 21],58,10,86,–
(C16-diacid)H-Aib-EGTFISDYST-Aib-LDNLAAKDFINWLIQTKITKNDWKHNITQ-OH [Compound no. 43],73,–,101,–
(C16-diacid)H-Aib-EGTFISDYST-Aib-LDNLAARDFINWLIQTKITK-OH [Compound no. 19],81,–,98,–
(C16-diacid)HADGTFISDYSTAibLDNLAARDFINWLIQTKITKNDWKHNITQ [Compound no. 39],78,–,99,–
Ac-H-Aib-DGTFISDY-K(γGlu-C16)-T-Aib-LDNLAARDFINWLIQTKITK-OH [Compound no. 34],103,–,75,–
Ac-H-Aib-DGTFISDY-K(γGlu-C16)-T-Aib-LDNLAARDFINWLIQTKITKNDWKHNITQ-OH [Compound no. 38],89,–,81,–
H-Aib-DG-K(γGlu- γGlu-C10)-FISDYSTILDNLAARDFINWLIQTKITK-OH [Compound no. 26],91,14,80,–
H-Aib-DG-K(γGlu- γGlu-C16)-FISDYST-Aib-LDNLAARDFINWLIQTKITK-OH [Compound no. 28],99,14,105,–
H-Aib-DGTF-K(γGlu-C16)-SDYSTILDNLAARDFINWLIQTKITK-OH [Compound no. 10],23,10,102,–
H-Aib-DGTFISDY-K(γGlu-C10)-T-Aib-LDNLAARDFINWLIQTKITD-OH [Compound no. 30],81,10,85,–
H-Aib-DGTFISDY-K(γGlu-C16)-T-Aib-LDNLAARDFINWLIQTKITK-OH [Compound no. 29],124,0,104,–
H-Aib-DGTFISDY-K(γGlu-C16)-TILDNLAARDFINWLIETKITK-OH [Compound no. 32],84,–,89,–
H-Aib-DGTFISDYS-K(γGlu-C16)-ILDNLAARDFINWLIQTKITK-OH [Compound no. 12],79,62,107,–
"H-Aib-DGTFISDYST-Aib-LDNLAARDFINWLIQTKITK(C10)-NH2 [Compound no. 65, reference compound]",–,–,–,"Efficacy GLP-2R [1, 6]: 77; Efficacy GLP-1R [2, 7]: 76; activation of hGLP-1R [2]: capable of activating hGLP-1R; Efficacy GIPR [3, 8]: 107"
"H-Aib-DGTFISDYSTILDNLAARDFINWLIQTKITK(C10)-OH [Compound no. 63, reference compound]",–,–,–,"Efficacy GLP-2R [1, 6]: 105; Efficacy GLP-1R [2, 7]: 84; activation of hGLP-1R [2]: capable of activating hGLP-1R; Efficacy GIPR [3, 8]: 99"
"HADGTFISDYSTAibLDK(γGlu-C18-diacid) LAARDFINWLIQTKGKK [Compound no. 62, reference compound]",–,–,–,activation of hGLP-1R [2]: capable of activating hGLP-1R
"HADGTFISDYSTAibLDNLAARDFINWLIQTKGKKK(γGlu-C18-diacid) [Compound no. 61, reference compound]",–,–,–,activation of hGLP-1R [2]: capable of activating hGLP-1R
"HADGTFISDYSTILDK(γGlu-C18-diacid) LAARDFINWLIQTKGKK [Compound no. 64, reference compound]",–,–,–,activation of hGLP-1R [2]: capable of activating hGLP-1R
"HADGTFISDYSTILDNLAARDFINWLIQTKGKK(γGlu-C18-diacid) [Compound no. 60, reference compound]",–,–,–,activation of hGLP-1R [2]: capable of activating hGLP-1R
